# Experimental data reported in US9981934B2, “Enzyme-specific fluorescent compound capable of being retained in cells” (The University of Tokyo, priority 2014, dated 2018).
# Experiments:
# β-galactosidase [1] = target: T1, β-galactosidase (Escherichia coli, UniProt P00722); assay type: biochemical; conditions: 30 minutes, 250 mM sodium phosphate buffer pH 7.4, excitation 550 nm
# Description: Absorption spectrum variation and fluorescence spectrum variation (excitation wavelength: 550 nm) caused by enzyme reaction of β-galactosidase and the enzyme-specific retainable fluorescent compound of the present invention 2-CHF2-HMDER-βGal, 4-CHF2-HMDER-βGal, or 4-CH2F-HMDER-βGal for 30 minutes was measured in the presence of a 250 mM sodium phosphate buffer solution (pH: 7.4). Measurement was performed using a Shimadzu UV-2450 (manufactured by Shimadzu Corporation) and a Hitachi F-7000 (manufactured by Hitachi, Ltd.).
# HEK-lacZ cell lysate = target: T2, HEK-lacZ cell lysate (Escherichia coli, UniProt P00722); assay type: biochemical; conditions: 2.5 μM compound; for fluorescence labeling of intracellular protein after SDS-PAGE: 1.5 mg/mL HEK-lacZ cell lysate, 30 minutes 37° C.
# T2 construct: expressed in transfected cells; host or cells: HEK cells (HEK-lacZ), used as cell lysate
# From the text: HEK cells (HEK-lacZ cells) expressing β-galactosidase and HEK cells were used.
# β-galactosidase [2] = target: T1, β-galactosidase; assay type: biochemical; conditions: 2.5 μM compound, 0.5 mg/mL BSA; for fluorescence at the band of BSA after SDS-PAGE: 5 U β-galactosidase, excitation 488 nm
# Description: (1) 2.5 μM 4-CH2F-HMDER-βGal and 0.5 mg/mL BSA, (2) 2.5 μM 4-CH2F-HMDER-βGal, 0.5 mg/mL BSA, and 5 U of β-galactosidase, (3) 2.5 μM 4-CHF2-HMDER-βGal, 0.5 mg/mL BSA, and 5 U of β-galactosidase, (4) 2.5 μM 2-CHF2-HMDER-βGal, 0.5 mg/mL BSA, and 5 U of β-galactosidase, and (5) 2.5 μM HMDER-βGal, 0.5 mg/mL BSA, and 5 U of β-galactosidase were each reacted in aqueous solution (500 mM sodium phosphate buffer solution having a pH of 7.4), after which the reaction products were subjected to SDS-PAGE (running gel: 10%, stacking gel: 4%, electrophoresis voltage: 200 V). […] After observation, each gel was Coomassie stained and the position of the BSA on the gel was confirmed (FIG. 4(b)).
# HEK-lacZ cells [3] = assay: Fluorescence imaging of living cells expressing β-galactosidase (confocal microscope); conditions: for fluorescence imaging of β-galactosidase activity of individual cells: mixture of HEK-LacZ cells and HEK cells, without washing
# Description: HEK cells, HEK-lacZ cells, and a mixture thereof were incubated (at 37° C. in the presence of 5% CO2) for 30 minutes together with 1 μM 4-CH2F-HMDER-βGal or HMDER-βGal, after which a fluorescence image and a differential interference image (DIC) of the cells were acquired using a confocal microscope, before and after washing twice with culture medium. […] A TCS SP5 X (manufactured by Leica) equipped with white light laser and an HCX PL APO CS 40×/1.25 objective lens (manufactured by Leica) was used as the confocal microscope, which was controlled by LAS AF software. The observation conditions were as follows: white light laser (WLL): 80% to 25%, excitation wavelength: 525 nm, observation wavelength: 535 to 595 nm, gain: 800 V (PMT1)/350 V (Scan-DIC), offset: 0%, pinhole: 67.88 μM (Airy disk).
# [4] = tested on: wing primordia (wing discs) with arm-lacZ / His2Av-mRFP1 cells; conditions: 10 μM, 30 minutes, non-fixed wing primordia
# Description: A male His2Av-mRFP1, FRT80B/TM6B fruit fly (Drosophila melanogaster) and a female hs-flp; arm-lacZ FRT80B fruit fly were crossed, a heat shock at a temperature of 37° C. for 1 hour was applied to the offspring at the first-instar larval stage 30 hours after hatching thereof, and cells having the following three genotypes were expressed in the wing primordia (wing discs): (1) cells expressing only β-galactosidase (arm-lacZ), (2) cells expressing only red fluorescent protein (mRFP1) (His2Av-mRFP1), and (3) cells expressing both β-galactosidase and mRFP1 (arm-lacZ/His2Av-mRFP1). […] The observation conditions were as follows: (4-CH2F-HMDER-βGal) excitation light: 514 nm, observation wavelength: 525 to 585 nm, (mRFP1) excitation light: 594 nm, emission wavelength: 610 to 700 nm, 63× magnification.
# [5] = tested on: Wing primordia (wing discs) of a (en-lacZ) fruit fly expressing β-galactosidase; assay: Fluorescence imaging of non-fixed biological tissue having β-galactosidase activity; conditions: 20 μM, 30 minutes, room temperature
# From the text: The observation conditions were as follows: Ar: 40% to 25%, excitation light: 314 nm, emission wavelength: 535 to 595 nm (HyD2), 20× magnification.
# HEK-lacZ cells [6] = assay: Detection of β-galactosidase activity in living cells using flow cytometry; assay type: cell-based; conditions: mixture of HEK-LacZ and HEK cells, 1 μM, 30 minutes, excitation 488 nm
# Description: These cells were analyzed by excitation light having a wavelength of 488 nm using an Accuri C6 (Accuri Cytometers, Inc.) flow cytometer.
# [7] = tested on: ovarian cancer cells SHIN3; conditions: intraperitoneal administration, observed 1 hour later, SHIN3 cancer model mouse
# Description: A cancer model mouse inoculated with ovarian cancer cells SHIN3 was produced. Acidic β-galactosidase activity is known to be elevated in ovarian cancer cells. 4-CH2F-HMDER-βGal was intraperitoneally administered to the cancer model mouse, and fluorescence was observed 1 hour later using a Maestro in-vivo imaging system (CRi). The observation conditions were as follows: excitation light: 490 to 530 nm, observation wavelength: 550 to 800 nm.
# [8] = tested on: fruit fly (esg-lacZ) expressing β-galactosidase in the midgut; conditions: midgut fixed with 4% PFA, reacted 10 minutes
# Description: A fruit fly (esg-lacZ) expressing β-galactosidase in the midgut thereof was dissected and fixed with 4% FPA. Then, 4-CH2F-HMDER-βGal was added and reacted for 10 minutes.
# [9] = tested on: fruit fly fat body overexpressing β-galactosidase; conditions: 10 μM, fat bodies of third-instar fly
# Description: In order to analyze cells in fruit fly (Drosophila melanogaster) fat body, overexpression of β-galactosidase was induced by crossing UAS-lacZ with hs-flp^122; Actin>y>Gal4 using a flip-out technique. To perform living-cell fluorescence imaging, fat bodies were dissected from a third-instar (final instar) fly and incubated for 29 minutes in a culture medium including 10 μM 4-CH2F-HMDER-βGal and 16 μM Hoechst 33342 (cell nuclear stain), and the fat bodies were washed with PBS and immersed in 80% glycerol. To perform immunostaining, the dissected adipocytes were immersed for 20 minutes in PBS containing 4% paraformaldehyde (PFA) and fixed. […] The observation conditions were as follows: (Hoeschst 33342) excitation light: 405 nm, observation wavelength: 415 to 490 nm, (4-C2F-HMDER-βGal) excitation light: 514 nm, observation wavelength: 525 to 600 nm, (Alexa 647 modified secondary antibodies) excitation light: 633 nm, observation wavelength: 640 to 700 nm, 40× magnification.
# T1 sequence (P00722 2-1024): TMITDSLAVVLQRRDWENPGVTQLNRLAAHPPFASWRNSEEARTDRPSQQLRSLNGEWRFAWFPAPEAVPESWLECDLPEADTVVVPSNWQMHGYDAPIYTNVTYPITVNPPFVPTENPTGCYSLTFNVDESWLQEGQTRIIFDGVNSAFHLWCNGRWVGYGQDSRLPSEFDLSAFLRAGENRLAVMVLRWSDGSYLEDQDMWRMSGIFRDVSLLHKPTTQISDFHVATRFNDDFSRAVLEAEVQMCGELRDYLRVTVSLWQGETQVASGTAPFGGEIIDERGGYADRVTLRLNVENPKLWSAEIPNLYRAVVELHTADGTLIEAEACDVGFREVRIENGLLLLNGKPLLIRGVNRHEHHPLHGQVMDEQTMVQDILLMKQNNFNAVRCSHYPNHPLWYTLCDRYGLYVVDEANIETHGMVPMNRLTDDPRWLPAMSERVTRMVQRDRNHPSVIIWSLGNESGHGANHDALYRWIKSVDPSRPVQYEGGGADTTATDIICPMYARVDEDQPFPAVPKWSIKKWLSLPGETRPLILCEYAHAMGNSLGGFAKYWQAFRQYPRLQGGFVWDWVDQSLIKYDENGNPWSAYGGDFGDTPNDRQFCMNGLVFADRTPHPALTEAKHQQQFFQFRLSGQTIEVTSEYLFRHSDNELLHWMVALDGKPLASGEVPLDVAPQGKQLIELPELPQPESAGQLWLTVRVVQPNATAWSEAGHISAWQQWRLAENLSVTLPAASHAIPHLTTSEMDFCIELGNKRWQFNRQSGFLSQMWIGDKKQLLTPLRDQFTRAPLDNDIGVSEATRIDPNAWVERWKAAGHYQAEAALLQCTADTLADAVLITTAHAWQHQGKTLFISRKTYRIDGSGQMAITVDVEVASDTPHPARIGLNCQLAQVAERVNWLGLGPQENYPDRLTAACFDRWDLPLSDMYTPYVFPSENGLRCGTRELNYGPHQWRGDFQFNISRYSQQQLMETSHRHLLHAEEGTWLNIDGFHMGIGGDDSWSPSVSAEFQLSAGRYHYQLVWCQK
# T2 sequence (P00722 whole entry): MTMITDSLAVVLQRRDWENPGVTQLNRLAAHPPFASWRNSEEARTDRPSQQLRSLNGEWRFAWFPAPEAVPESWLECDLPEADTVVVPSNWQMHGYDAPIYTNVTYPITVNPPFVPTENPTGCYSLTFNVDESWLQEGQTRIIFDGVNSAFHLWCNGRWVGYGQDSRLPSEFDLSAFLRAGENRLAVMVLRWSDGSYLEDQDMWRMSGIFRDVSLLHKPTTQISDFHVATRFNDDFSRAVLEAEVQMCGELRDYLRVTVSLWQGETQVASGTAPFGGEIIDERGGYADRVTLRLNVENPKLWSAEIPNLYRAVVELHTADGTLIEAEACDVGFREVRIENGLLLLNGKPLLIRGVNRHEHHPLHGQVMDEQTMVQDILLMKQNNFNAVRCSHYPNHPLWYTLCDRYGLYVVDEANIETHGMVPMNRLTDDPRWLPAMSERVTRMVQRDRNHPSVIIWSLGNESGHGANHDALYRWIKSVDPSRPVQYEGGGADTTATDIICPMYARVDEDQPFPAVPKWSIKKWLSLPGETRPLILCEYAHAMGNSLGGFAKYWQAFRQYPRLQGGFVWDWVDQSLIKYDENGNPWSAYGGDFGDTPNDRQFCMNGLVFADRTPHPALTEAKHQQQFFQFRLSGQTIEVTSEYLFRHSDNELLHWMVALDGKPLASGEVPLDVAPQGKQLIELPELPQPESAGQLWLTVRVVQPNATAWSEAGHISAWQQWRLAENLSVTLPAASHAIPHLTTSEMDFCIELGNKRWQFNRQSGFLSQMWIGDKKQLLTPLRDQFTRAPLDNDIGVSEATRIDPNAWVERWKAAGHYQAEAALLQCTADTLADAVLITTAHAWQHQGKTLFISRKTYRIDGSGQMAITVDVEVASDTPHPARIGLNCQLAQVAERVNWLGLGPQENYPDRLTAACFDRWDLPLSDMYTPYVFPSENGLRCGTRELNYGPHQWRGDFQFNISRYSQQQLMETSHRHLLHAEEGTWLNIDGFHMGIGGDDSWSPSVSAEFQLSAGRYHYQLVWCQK
SMILES,fluorescence emission as a result of enzyme reaction with β-galactosidase (β-galactosidase [1]),fluorescence labeling of intracellular protein after SDS-PAGE (HEK-lacZ cell lysate),fluorescence at the band of BSA after SDS-PAGE (β-galactosidase [2]),"fluorescence of HEK-LacZ cells (HEK-lacZ cells [3]; 1 μM, 30 minutes, observed without washing)","change in fluorescence intensity after washing (retention in cells) (HEK-lacZ cells [3]; 1 μM, 30 minutes, washed twice with culture medium)",fluorescence imaging of fixed samples (HEK-lacZ cells [3]; cells fixed with 4% PFA for 10 minutes after incubation),"fluorescence imaging of β-galactosidase activity of individual cells (HEK-lacZ cells [3]; 1 μM, 30 minutes)",visualization of mosaic pattern of β-galactosidase-positive cells [4],selective fluorescence imaging of the region having β-galactosidase activity [5],differentiation of HEK-LacZ cells and HEK cells by flow cytometry (HEK-lacZ cells [6]),cancer-site-selective fluorescence imaging [7],"fluorescence labeling of intracellular protein after SDS-PAGE, HEK cells not expressing β-galactosidase (HEK-lacZ cell lysate; 1.5 mg/mL HEK cell lysate (lane 1))",single-cell fluorescence imaging in fixed tissue [8],"fluorescence at the band of BSA after SDS-PAGE, sample not including β-galactosidase (β-galactosidase [2]; no β-galactosidase (lane 1))",fluorescence imaging of β-galactosidase-expressing cells in fat body [9]
"CCN(CC)c1ccc2c(c1)Oc1cc(O[C@@H]3O[C@H](CO)[C@H](O)[C@H](O)[C@H]3O)c(C(F)F)cc1C21OCc2ccccc21 (stereo partly drawn) [2-CHF2-HMDER-βGal, (2S,3R,4S,5R,6R)-2-((6′-(diethylamino)-2′-(difluoromethyl)-3H-spiro[isobenzofuran-1,9′-xanthen]-3′-yl)oxy)-6-(hydroxymethyl)tetrahydro-2H-pyran-3,4,5-triol]",emitted fluorescence,Fluorescence labeling to the intracellular protein was confirmed,Fluorescence was observed at the band of BSA,–,–,–,–,–,–,–,–,–,–,–,–
CCN(CC)c1ccc2c(c1)Oc1c(ccc(O[C@@H]3O[C@H](CO)[C@H](O)[C@H](O)[C@H]3O)c1CF)C21OCc2ccccc21 (some centres unmarked) [4-CH2F-HMDER-βGal],emitted fluorescence,Fluorescence labeling to the intracellular protein was confirmed,Fluorescence was observed at the band of BSA,exhibited clear fluorescence,almost no change in fluorescence intensity,Fluorescence imaging with the fixed samples was also possible,a definite difference in fluorescence level among individual cells was observed,the mosaic pattern of the cells having the three genotypes described above was clearly visualized,selective fluorescence imaging of the region of interest (posterior section) having β-galactosidase activity was possible,possible to clearly differentiate between these cell types,can be applied in cancer-site-selective fluorescence imaging,Fluorescence was not confirmed,it was possible to confirm a cell emitting fluorescence in a tissue,Fluorescence was not observed,it is possible to perform fluorescent imaging of cells of interest in which β-galactosidase is expressed
"CCN(CC)c1ccc2c(c1)Oc1c(ccc(O[C@@H]3O[C@H](CO)[C@H](O)[C@H](O)[C@H]3O)c1C(F)F)C21OCc2ccccc21 (stereo partly drawn) [4-CHF2-HMDER-βGal, (2S,3R,4S,5R,6R)-2-((3′-(diethyiamino)-5′-(difluoromethyl)-3H-spiro[isobenzofuran-1,9′-xanthen]-6′-yl)-oxy)-6-(hydroxymethyl)tetrahydro-2H-pyran-3,4,5-triol]",emitted fluorescence,Fluorescence labeling to the intracellular protein was confirmed,Fluorescence was observed at the band of BSA,–,–,–,–,–,–,–,–,–,–,–,–
"CCN(CC)c1ccc2c(c1)Oc1cc(OC3OC(CO)C(O)C(O)C3O)ccc1C21OCc2ccccc21 (centres unmarked) [HMDER-βGal, reference compound]",–,Fluorescence was not confirmed,Fluorescence was not observed,–,–,–,fluorescence imaging of β-galactosidase activity of individual eels was not possible,–,the region of interest having β-galactosidase activity could not be discerned,the cells could not be differentiated,–,–,–,–,–
